Measurements taken from ChEMBL document CHEMBL3507680, “University of Dundee, Gates Library screen for HepG2 cell viability”.

Experiment: Human HepG2 cell viability assay in 384 well format
Format: toxicity, cell-based
Set-up: dose 125 nL, time 70.5 hour; concentration not given beside the values
Details: HepG2 cells, read-out: Inhibition

| SMILES | cytotoxicity at 70.5 h |
| --- | --- |
| O=C(c1ccccn1)C1CCCN(c2nccc(CCC(F)(F)F)n2)C1 (centres undefined) | -13.1% |
| CN(C)C(=O)c1cnn2c1OCCC2 | -2.65% |
| CC(C)NC(=O)[C@@H]1C[C@H]2NCC[C@H]2O1 | -7.3% |
| CCN1CC2(CC1=O)CN(C(=O)NC(C)C)CCN(C(=O)NC(C)C)C2 | -4.47% |
| COCCO[C@H]1CCN(c2cc(OC)ncn2)[C@H]1Cc1ccncc1 | -1.44% |
| CNC(=O)CNC(=O)Nc1ccc(F)c(Br)c1 | -2.46% |
| Cc1cc(CNC(=O)c2ccno2)c(C)o1 | -7.21% |
| COC(=O)c1cccc(C(=O)N2CCN(C(=O)N(C)C)CC2(C)C)c1 | 16.9% |
| Cn1cc(CCNC(=O)N2CCCC(Cc3nccn3C)C2)cn1 (centres undefined) | -0.841% |
| Cc1cc(=O)[nH]c(=O)n1-c1cccc(Cl)c1Cl | -12.3% |
| COC1CCN(c2ccc(F)cc2CN(C)C(C)C(N)=O)CC1 (centres undefined) | -1.51% |
| Cc1nc(CN2CCCC(c3cc(C(F)(F)F)[nH]n3)C2)cs1 (centres undefined) | -3.08% |
| CCOc1ccc(C(=O)n2cccn2)cc1 | -4.2% |
| Cc1cnc(C(=O)N2CCN(C(=O)C(C)C)[C@@H]3CS(=O)(=O)C[C@@H]32)cn1 | -6.02% |
| CC(C)CCN1CC2(CCN(C(=O)C3(C)CC3)CC2)OC1=O | -0.562% |
| CS(=O)(=O)N1CCN(C(=O)c2cc(-c3ccco3)cs2)CC1 | 0.0321% |
| Fc1ccc(COCC2CCN(Cc3ccccn3)CC2)cc1 | -4.18% |
| O=C(c1cccc(CNC/C=C/c2ccccc2)c1)N1CCCC1 | 4.26% |
| Cc1cc(-c2cnc(NC3CCCCC3)nc2-c2ccco2)on1 | -9.46% |
| CC(C)(C)OC(=O)NCCNC(=O)c1cnc(-c2ccccc2)nc1 | -0.668% |
| CN(C)C(=O)[C@H]1C[C@H]2[C@H](CCN2Cc2ccc3c(c2)OCO3)O1 | -14.7% |
| COCC1COCCC12CCN(CCc1ccccc1)CC2 (centres undefined) | -0.938% |

| SMILES | cytotoxicity at 70.5 h |
| --- | --- |
| c1ccc2c(c1)CCN(c1ncnc3sc4c(c13)CCNC4)C2 | -2.21% |
| O=C(NCc1cccnc1N1CCCC(O)C1)c1ccc2[nH]nnc2c1 (centres undefined) | -25% |
| O=C(Nc1ccccc1)C1=NOC2(CCCNC2)C1 (centres undefined) | 18.4% |
| COc1ccccc1C1(CNCc2ccc(C#N)cc2)CCOCC1 | -6.31% |
| O=C(CN(CC(O)c1ccc(F)cc1)C1CC1)NCc1cccs1 (centres undefined) | -114% |
| CC(O)CN(CC(=O)NC1CCCCC1)c1ccccc1 (centres undefined) | 8.65% |
| Cc1cc(C[S+]([O-])CC(=O)Nc2c(C)cccc2C)no1 (centres undefined) | -8.27% |
| O=C(NCCN1CCC(c2cccs2)CC1)Nc1cccs1 | -3.14% |
| Nc1nc2c(c(NCc3cnc4c(c3)CCC4)n1)CCNC2 | -10.4% |
| O=C(C1CCC1)N1C[C@@H]2CC[C@H](C1)N(S(=O)(=O)c1cccnc1)C2 | -5.86% |
| O=C1[C@H]2CN(C(=O)[C@H]3CCCO3)C[C@H]2CN1CCN1CCCC1 | -9.56% |
| CC(C)N1CCO[C@@H]2CN(C(=O)NCc3ccccc3)CC[C@@H]2C1 | 28.5% |
| c1ccc(N2CCCC3(CCN(Cc4ccsc4)C3)C2)nc1 (centres undefined) | -7.47% |
| CCn1ccnc1SCCn1cnc2ccsc2c1=O | -10% |
| O=C(Nc1ccccn1)C1=NN(c2ccccc2)C(=O)CN1 | 45.9% |
| CCN(Cc1ccco1)C(C)c1nc(C)no1 (centres undefined) | -2.63% |
| CCOC(=O)N1CC(=O)N(CCc2ccccc2)CC(O)C1 (centres undefined) | 5.59% |
| CCC(C)C(=O)NS(=O)(=O)c1ccc(C#N)cc1C(F)(F)F (centres undefined) | -3.39% |
| CCS(=O)(=O)N1CCCC2(CCCN2C(=O)c2cscn2)C1 (centres undefined) | -0.54% |
| O=C([C@H]1CCS(=O)(=O)[C@@H]2CN(CCc3ccccc3)C[C@H]12)N1CCCC1 | -1.64% |
| O=C1CN(S(=O)(=O)CC(F)(F)F)CC(O)CN1CCCc1ccccc1 (centres undefined) | -3.16% |
| O=C1CC(c2ccncc2)C2(CCN(Cc3nccs3)CC2)N1 (centres undefined) | -7.32% |
